Data as given in patent publication US7507743B2, “Substituted 8′-pyridinyl-dihydrospiro-[cycloalkyl]-pyrimido[1,2-a] pyrimidin-6-one and 8′-pyrimidinyl-dihydrospiro-[cycloalkyl]-pyrimido[1,2-a] pyrimidin-6-one derivatives” (Sanofi-Aventis, priority 2003, dated 2009).
Where a name gives a salt, the structure may show the parent alone.

## O=C(CN1c2nc(-c3ccncc3)cc(=O)n2CCC12CC2)c1ccccc1 (as salt: hydrochloride) [compound 2, 1′-(2-Oxo-2-phenylethyl)-8′-pyridin-4-yl-3′,4′-dihydrospiro[cyclopropane-1,2′-pyrimido[1,2-a]pyrimidin]-6′(1′H)-one]
  melting point: 232 to 234 °C

## O=c1cc(-c2ccncc2)nc2n1CCC1(CC1)N2Cc1ccccc1 (as salt: hydrochloride) [compound 17, 1′-(phenylmethyl)-8′-pyridin-4-yl-3′,4′-dihydrospiro-[cyclopropane-1,2′-pyrimido[1,2-a]pyrimidin]-6′(1′H)-one]
  melting point: 233 to 235 °C

## O=c1cc(-c2ccncc2)nc2n1CCC1(CCC1)N2CCc1ccccc1 (as salt: hydrochloride) [compound 21, 1′-(phenylethyl)-8′-pyridin-4-yl-3′,4′-dihydrospiro-[cyclobutane-1,2′-pyrimido[1,2-a]pyrimidin]-6′(1′H)-one]
  melting point: 210 to 211 °C

## O=c1cc(-c2ccncc2)nc2n1CCC1(CC1)N2CCc1ccccc1 (as salt: hydrochloride) [compound 22, 1′-(phenylethyl)-8′-pyridin-4-yl-3′,4′-dihydrospiro-[cyclopropane-1,2′-pyrimido[1,2-a]pyrimidin]-6′(1′H)-one]
  melting point: 224 to 225 °C

## O=c1cc(-c2ccncc2)nc2n1CCC1(CCCC1)N2Cc1ccccc1 (as salt: hydrochloride) [compound 19, 1′-(phenylmethyl)-8′-pyridin-4-yl-3′,4′-dihydrospiro-[cyclopentane-1,2′-pyrimido[1,2-a]pyrimidin]-6′(1′H)-one]
  melting point: 227 to 228 °C

## O=C(CN1c2nc(-c3ccncc3)cc(=O)n2CCC12CCCC2)c1ccccc1 (as salt: hydrochloride) [compound 7, 1′-(2-Oxo-2-phenylethyl)-8′-pyridin-4-yl-3′,4′-dihydrospiro[cyclopentane-1,2′-pyrimido[1,2-a]pyrimidin]-6′(1′H)-one]
  melting point: 161 to 162 °C

## O=c1cc(-c2ccncc2)nc2n1CCC1(CCC1)N2Cc1ccccc1 (as salt: hydrochloride) [compound 18, 1′-(phenylmethyl)-8′-pyridin-4-yl-3′,4′-dihydrospiro-[cyclobutane-1,2′-pyrimido[1,2-a]pyrimidin]-6′(1′H)-one]
  melting point: 213 to 215 °C

## O=c1cc(-c2ccncc2)nc2n1CCC1(CCCC1)N2CCc1ccccc1 (as salt: hydrochloride) [compound 20, 1′-(phenylethyl)-8′-pyridin-4-yl-3′,4′-dihydrospiro-[cyclopentane-1,2′-pyrimido[1,2-a]pyrimidin]-6′(1′H)-one]
  melting point: 208 to 210 °C

## O=c1cc(-c2ccncn2)nc2n1CCC1(CCCC1)N2C[C@H](O)c1ccccc1 [compound 5, 1′-[(2R)-2-Hydroxy-2-phenylethyl]-8′-pyrimidin-4-yl-3′,4′-dihydrospiro-[cyclopentane-1,2′-pyrimido[1,2-a]pyrimidin]-6′(1′H)-one]
  melting point: 155 to 156 °C

## O=c1cc(-c2ccncn2)nc2n1CCC1(CCCC1)N2C[C@@H](O)c1ccccc1 [compound 4, 1′-[(2S)-2-Hydroxy-2-phenylethyl]-8′-pyrimidin-4-yl-3′,4′-dihydrospiro-[cyclopentane-1,2′-pyrimido[1,2-a]pyrimidin]-6′(1′H)-one]
  melting point: 157 to 158 °C

## O=C(CN1c2nc(-c3ccncc3)cc(=O)n2CCC12CCC2)c1ccccc1 (as salt: hydrochloride) [compound 9, 1′-(2-Oxo-2-phenylethyl)-8′-pyridin-4-yl-3′,4′-dihydrospiro[cyclobutane-1,2′-pyrimido[1,2-a]pyrimidin]-6′(1′H)-one]
  melting point: 242 to 244 °C

## O=c1cc(-c2ccncc2)nc2n1CCC1(CCCC1)N2C[C@@H](O)c1ccccc1 (as salt: hydrochloride) [compound 3, 1′-[(2S)-2-Hydroxy-2-phenylethyl]-8′-pyridin-4-yl-3′,4′-dihydrospiro-[cyclopentane-1,2′-pyrimido[1,2-a]pyrimidin]-6′(1′H)-one]
  melting point: 221 to 223 °C

## O=c1cc(-c2ccncn2)nc2n1CCC1(CCC1)N2C[C@H](O)c1ccccc1 [compound 12, 1′-[(2R)-2-Hydroxy-2-phenylethyl]-8′-pyrimidin-4-yl-3′,4′-dihydrospiro-[cyclobutane-1,2′-pyrimido[1,2-a]pyrimidin]-6′(1′H)-one]
  melting point: 182 to 184 °C

## O=c1cc(-c2ccncc2)nc2n1CCC1(CCC1)N2C[C@H](O)c1ccccc1 (as salt: hydrochloride) [compound 13, 1′-[(2R)-2-Hydroxy-2-phenylethyl]-8′-pyridin-4-yl-3′,4′-dihydrospiro-[cyclobutane-1,2′-pyrimido[1,2-a]pyrimidin]-6′(1′H)-one]
  melting point: 218 to 220 °C

## O=c1cc(-c2ccncn2)nc2n1CCC1(CCCC1)N2CCc1ccccc1 [compound 24, 1′-(phenylethyl)-8′-pyrimidin-4-yl-3′,4′-dihydrospiro-[cyclopentane-1,2′-pyrimido[1,2-a]pyrimidin]-6′(1′H)-one]
  melting point: 190 to 191 °C

## O=c1cc(-c2ccncc2)nc2n1CCC1(CCC1)N2C[C@@H](O)c1ccccc1 (as salt: hydrochloride) [compound 8, 1′-[(2S)-2-Hydroxy-2-phenylethyl]-8′-pyridin-4-yl-3′,4′-dihydrospiro-[cyclobutane-1,2′-pyrimido[1,2-a]pyrimidin]-6′(1′H)-one]
  melting point: 214 to 216 °C

## O=c1cc(-c2ccncn2)nc2n1CCC1(CCC1)N2Cc1ccccc1 [compound 14, 1′-(phenylmethyl)-8′-pyrimidin-4-yl-3′,4′-dihydrospiro-[cyclobutane-1,2′-pyrimido[1,2-a]pyrimidin]-6′(1′H)-one]
  melting point: 149 to 150 °C

## O=c1cc(-c2ccncc2)nc2n1CCC1(CCCC1)N2C[C@H](O)c1ccccc1 (as salt: hydrochloride) [compound 15, 1′-[(2R)-2-Hydroxy-2-phenylethyl]-8′-pyridin-4-yl-3′,4′-dihydrospiro-[cyclopentane-1,2′-pyrimido[1,2-a]pyrimidin]-6′(1′H)-one]
  melting point: 221 to 222 °C

## O=c1cc(-c2ccncc2)nc2n1CCC1(CC1)N2C[C@@H](O)c1ccccc1 (as salt: hydrochloride) [compound No. 1, 1′-[(2S)-2-Hydroxy-2-phenylethyl]-8′-pyridin-4-yl-3′,4′-dihydrospiro[cyclopropane-1,2′-pyrimido[1,2-a]pyrimidin]-6′(1′H)-one]
  melting point: 219 to 221 °C

## O=c1cc(-c2ccncn2)nc2n1CCC1(CCCC1)N2Cc1ccccc1 [compound 16, 1′-(phenylmethyl)-8′-pyrimidin-4-yl-3′,4′-dihydrospiro-[cyclopentane-1,2′-pyrimido[1,2-a]pyrimidin]-6′(1′H)-one]
  melting point: 191 to 193 °C

## O=c1cc(-c2ccncn2)nc2n1CCC1(CCC1)N2CCc1ccccc1 [compound 23, 1′-(phenylethyl)-8′-pyrimidin-4-yl-3′,4′-dihydrospiro-[cyclobutane-1,2′-pyrimido[1,2-a]pyrimidin]-6′(1′H)-one]
  melting point: 116 to 167 °C

## O=C(CN1c2nc(-c3ccncn3)cc(=O)n2CCC12CCC2)c1ccccc1 [compound No. 10, 1′-(2-Oxo-2-phenylethyl)-8′-pyrimidin-4-yl-3′,4′-dihydrospiro[cyclobutane-1,2′-pyrimido[1,2-a]pyrimidine]-6′(1′H)-one]
  melting point: 207 to 208 °C

## O=c1cc(-c2ccncn2)nc2n1CCC1(CCC1)N2C[C@@H](O)c1ccccc1 [compound 11, 1′-[(2S)-2-Hydroxy-2-phenylethyl]-8′-pyrimidin-4-yl-3′,4′-dihydrospiro-[cyclobutane-1,2′-pyrimido[1,2-a]pyrimidin]-6′(1′H)-one]
  melting point: 186 to 187 °C

## O=C(CN1c2nc(-c3ccncn3)cc(=O)n2CCC12CCCC2)c1ccccc1 [compound 6, 1′-[2-Oxo-2-phenylethyl]-8′-pyrimidin-4-yl-3′,4′-dihydrospiro-[cyclopentane-1,2′-pyrimido[1,2-a]pyrimidin]-6′(1′H)-one]
  melting point: 194 to 196 °C
